Data published in patent US20230201151A1, “FORMULATIONS AND METHODS FOR TREATING ACUTE RESPIRATORY DISTRESS SYNDROME, ASTHMA, OR ALLERGIC RHINITIS” (UNIVERSITY OF FLORIDA RESEARCH FOUNDATION, INC., priority 2020, published 2023).

Experiments:
Type in all cases: cell-based, human
HBECs = assay: TEER (epithelial barrier function) in differentiated HBECs, Ussing chamber
Description: (§1) High individual variation in benzamil-sensitive current and TEER in HBECs. In an Ussing chamber-based experimental design, basal short-circuit current (Isc) and transepithelial electrical resistance (TEER) were recorded in differentiated HBECs from two lung donors that were grown on snapwells at an air-liquid interface for 28 to 35 days. Benzamil, a potent ENaC blocker was used to determine ENaC activity by calculating benzamil-sensitive Isc from changes in Isc that occur 15 minutes after adding 6 μM benzamil to the apical side of cells. […] Therefore, normalized data were used for all subsequent experiments for statistical analyses relating to FIGS. 13-18.
(§2) Basal treatment with cytokines [IL-13 (Abcam), IL-4 (PeproTech), TNF-α, IFN-γ and TGF-β1 (R&D Systems)] diluted in ALI medium started as early as day 14 post differentiation. Individual cytokines or cytokine cocktails were added to the culture medium at the desired concentrations and cells were incubated with the cytokines for a maximum of 16 days. ALI medium containing cytokines was changed every two days. Age-matched HBECs were assigned to the following treatment groups:
(§3) II Time-dependent studies: These studies were done using a concentration that ensured maximum inhibition of benzamil-sensitive Isc and TEER. HBECs were treated with respective cytokines for 2, 4, 6, 8, 10, 12, 14, or 16 days. IFN-γ, TNF-α or TGF-β1 at 1 ng/mL, IL-13 at 20 ng/mL and IL-4 at 2 ng/mL were used.
(§4) III Cytokine cocktails: were prepared using IFN-γ and TNF-α at 0.05, 0.5, 2.5, 5 and 10 ng/mL while TNF-α, IFN-γ and TGF-β1 at 1 ng/mL for each of the cytokines was added to the culture media for 7 days.
(§5) Ussing chamber experiments: Snapwells with differentiated HBECs that were incubated with cytokines or age-matched HBECs without cytokine exposure were mounted in Ussing chambers (Physiologic Instruments), and cells were either bathed in isotonic ringer solution containing 113.8 mM Na^+, 93.6 mM Cl^−, 25 mM HCO3^−, 5.2 mM K^+, 2.4 mM HPO4^−, 0.4 mM H2PO4^−, 1.2 mM Mg^2+, 1.2 mM Ca^2+, and 75 mM mannitol, or in AA-EC01. Glucose (5 mM) was added to the basal side, and chambers were bubbled with 95% O2 and 5% CO2 at 37° C. AA-EC01 contained 8 mM lysine, 8 mM tryptophan, 8 mM arginine, 8 mM glutamine, and 1.2 mM tyrosine, and AANC contained 8 mM leucine, 8 mM cysteine, 8 mM isoleucine, 8 mM aspartic acid and 8 mM glutamate (Ajinomoto), both diluted in an electrolyte solution containing 113.8 mM Na^t, 93.6 mM Cl^−, 25 mM HCO3^−, 5.2 mM K^+, 2.4 mM HPO4^−, 0.4 mM H2PO4^−, 1.2 mM Mg′, 1.2 mM Ca^2+ and 40 mM mannitol at pH 7.4 and 300 mOsm. Cell cultures were allowed to equilibrate in the Ussing chambers for 30 minutes while continuously voltage clamped to 0 mV. Basal short circuit current (Isc) and transepithelial electrical resistance (TEER) were recorded at 30-second intervals, and benzamil-sensitive Isc was calculated from the difference of basal Isc recorded after 30 minutes and Isc measured at 15 minutes after adding 6 μM of benzamil (ThermoFisher) to the apical side.
(§6) Statistical analysis: Results are presented as mean±standard error of mean (SEM). Analyses were performed with OriginPro 2018 software package. For each treatment group, values were tested for normal distribution using the Shapiro-Wilk normality test. […] The values were normalized to controls within the group, and data were pooled for comparison between groups. Kruskal-Wallis test was used for comparing the overall effect of ringer, AA-EC01 and AANC on benzamil-sensitive Isc and TEER, and Mann Whitney U test was used for pairwise comparison within the group and for comparison between basal values for each cytokine at zero ng/mL or day zero with each concentration and time period studied. P<0.05 was considered significant, and NS indicates not significant.

HBEC = assay: Barrier function in IL-13-treated differentiated HBEC, Examples 1-2; conditions: IL-13 20 ng/mL
Description: Experimental design: IL-13 treatment with 20 ng/mL media for 4 and 14 days. Ussing chamber experiment in Basic Ringer (5 mM glucose in basolateral side).
To investigate the importance of ENaC during inflammation and explore how its activity is modulated during the evolution of ARDS, the present inventors used primary cultures of human bronchial epithelial cells (HBEC) harvested from normal human lungs, which had been differentiated in vitro in an air-media interphase (air on the apical side and media on the basolateral side) for 30 days. Differentiated HBEC were used for electrophysiology experiments to evaluate the effect of IL-13 on these cells. […] Similarly, IL-13 (20 ng/mL) caused a maximum reduction in barrier function on day 8 of exposure.

ENaC = assay: Benzamil-sensitive Isc (ENaC activity) in differentiated HBECs, Ussing chamber
Description: as §1, §2, §3, §4, §5, §6

IL-13: Th2 cytokine (Abcam) added to HBEC culture medium
TEER, normalized to control (HBECs; IL-13 2 ng/mL, 14 days): 59.9±7.6%
TEER, normalized to control (maximum reduction) (HBECs; IL-13 4 ng/mL, 14 days): 41.3±6.9%
TEER, normalized to control (maximum reduction) (HBECs; IL-13 20 ng/mL, day 10): 48.7±3.6%
day of maximum reduction in barrier function (HBEC): 8 days
benzamil-sensitive Isc, normalized to control (ENaC; IL-13 0.1 ng/mL, 14 days): 50.9±9.6%
day by which benzamil-sensitive Isc was completely suppressed (ENaC; IL-13 20 ng/mL, 16-day incubation): ≤ 8 days
benzamil-sensitive Isc, of baseline value (ENaC; IL-13 20 ng/mL, day 2): 25.0±5%
concentration at which benzamil-sensitive Isc was completely abolished (ENaC; IL-13, 14 days): 8 ng/mL
